Laboratory results taken from article PMC12165799, “Antimicrobial peptide developed with machine learning sequence optimization targets drug resistant Staphylococcus aureus in mice” (The Journal of Clinical Investigation, 2025).
Like-named read-outs stand apart in the source and are kept apart here.

Tests used:
[1] = test system: S. aureus MW2 24 h established biofilm; settings: 24 h treatment
Description: 346 plated onto TSA plates, and incubated plates at 37°C overnight. The next day, we counted the
347 viable bacterial colonies.
We used TSB medium containing
356 bacteria with water as the positive control, while TSB media with sterile water served as the
357 negative control. After incubation, we carefully removed the TSB medium and washed the wells
358 with PBS (Gibco, MD, USA) to remove loosely attached planktonic cells. We quantified the
359 biomass by staining the biofilms with crystal violet following an established protocol and
360 quantitated the concentration of peptide that inhibits 50% of biofilm formation (MBIC50)(8). We
361 measured the live cell count of the biofilms using XTT dye [2,3-bis(2-methyloxy-4-nitro-5-
362 sulfophenyl)-2H-tertazolium-5-carboxanilide] (ATCC, VA, USA). We calculated the percentage
363 of biofilm growth by normalizing to biofilm growth in wells containing bacteria without peptide
366 Disruption of S. aureus MW2 established biofilms
367 We evaluated the ability of the citropin 1.1-derived peptides to disrupt established biofilms
368 following an established protocol with modifications (5). We prepared exponential cultures of S.
369 aureus MW2 (adjusted to 1 × 10^6 CFU/ml) in TSB medium (supplemented with 0.2% glucose)
370 from overnight grown cultures. We added 100 µl of bacterial culture to flat-bottomed 96-well
371 polystyrene microtiter plates (Cat no. 3595, Corning, NY, USA). We then incubated the plates at
372 37°C for 24 hours in static conditions to allow biofilm formation. After incubation, we carefully
373 pipetted out the TSB medium and washed the wells with PBS (Gibco, MD, USA) to remove
374 loosely attached planktonic cells. We treated the established biofilms in each well with 10 µl of
375 serially diluted 10× peptide solution, followed by the addition of 90 μl TSB medium
376 (supplemented with 0.2% glucose). We incubated the plates for another 24 h at 37°C before
377 processing biomass and live-cell contents. We calculated the concentration of peptide that disrupts
378 50% of established biofilms (MBEC50).

S. aureus MW2 = experiment: ATP release assay (luciferase); assay type: cell-based, Staphylococcus aureus; settings: 32 μg/mL, 30 minutes
Description: 484 min at room temperature in the dark based on a previously established protocol (8). We added 90
485 µl of the dye/bacteria mixture to 10 μl of serially diluted 10× peptide concentration in black, 96-
486 well plates (Cat. no. 3904, Corning, NY, USA) and incubated the plates for 1 hour at room
487 temperature. We measured the fluorescence with excitation and emission wavelengths of 485 nm
488 and 525 nm, respectively in endpoint assay mode using a SpectraMax i3x (Molecular Devices,
489 CA, USA) fluorescence reader.
490 Propidium iodide-based membrane permeability
491 We used a propidium iodide (Thermo Fisher Scientific, MA, USA) fluorescence-based
492 bacterial permeation assay to establish membrane-oriented interactions with the designed peptides
493 based on a previously established protocol (8). We prepared exponential phase S. aureus MW2
494 bacteria and diluted to OD600 = 0.4 in PBS. We added PI dye (final concentration = 2 µM) to the
495 bacteria in 1:10 serial dilutions in black, 96-well plates (Cat. no. 3904, Corning, NY, USA) and
496 incubated the plates for 1 hour at room temperature. We then measured the fluorescence with an
497 excitation wavelength of 584 nm and an emission wavelength of 620 nm in endpoint assay mode
498 using a SpectraMax i3x (Molecular Devices, CA, USA) fluorescence reader.
501 To determine the ATP leakage potential of the peptides, we employed a luciferase-based […]

| Compound | Established biofilm, biomass (crystal violet), percentage of untreated ([1]; 4 μg/ml, replicate 1) | Established biofilm, live-cell viability (XTT), percentage of untreated ([1]; 4 μg/ml, replicate 1) | Established biofilm, biomass (crystal violet), percentage of untreated ([1]; 4 μg/ml, replicate 2) | Established biofilm, live-cell viability (XTT), percentage of untreated ([1]; 4 μg/ml, replicate 2) | Established biofilm, biomass (crystal violet), percentage of untreated ([1]; 4 μg/ml, replicate 3) | Established biofilm, live-cell viability (XTT), percentage of untreated ([1]; 4 μg/ml, replicate 3) | Established biofilm, biomass (crystal violet), percentage of untreated ([1]; 8 μg/ml, replicate 1) | Established biofilm, live-cell viability (XTT), percentage of untreated ([1]; 8 μg/ml, replicate 1) | Established biofilm, live-cell viability (XTT), percentage of untreated ([1]; 8 μg/ml, replicate 2) | Established biofilm, biomass (crystal violet), percentage of untreated ([1]; 8 μg/ml, replicate 3) | Established biofilm, live-cell viability (XTT), percentage of untreated ([1]; 8 μg/ml, replicate 3) | Established biofilm, biomass (crystal violet), percentage of untreated ([1]; 16 μg/ml, replicate 1) | Established biofilm, live-cell viability (XTT), percentage of untreated ([1]; 16 μg/ml, replicate 1) | Established biofilm, biomass (crystal violet), percentage of untreated ([1]; 16 μg/ml, replicate 2) | Established biofilm, live-cell viability (XTT), percentage of untreated ([1]; 16 μg/ml, replicate 2) | Established biofilm, biomass (crystal violet), percentage of untreated ([1]; 16 μg/ml, replicate 3) | Established biofilm, live-cell viability (XTT), percentage of untreated ([1]; 16 μg/ml, replicate 3) | Established biofilm, biomass (crystal violet), percentage of untreated ([1]; 32 μg/ml, replicate 1) | Established biofilm, live-cell viability (XTT), percentage of untreated ([1]; 32 μg/ml, replicate 1) | Established biofilm, biomass (crystal violet), percentage of untreated ([1]; 32 μg/ml, replicate 2) | other results |
| --- | --- | --- | --- | --- | --- | --- | --- | --- | --- | --- | --- | --- | --- | --- | --- | --- | --- | --- | --- | --- | --- |
| CN[C@H](CC(C)C)C(=O)N[C@H]1C(=O)N[C@@H](CC(N)=O)C(=O)N[C@H]2C(=O)N[C@H]3C(=O)N[C@H](C(=O)N[C@H](C(=O)O)c4cc(O)cc(O)c4-c4cc3ccc4O)[C@H](O)c3ccc(c(Cl)c3)Oc3cc2cc(c3O[C@@H]2O[C@H](CO)[C@@H](O)[C@H](O)[C@H]2O[C@H]2C[C@](C)(N)[C@H](O)[C@H](C)O2)Oc2ccc(cc2Cl)[C@H]1O [Vancomycin, reference compound] | 149.693 | 100.129 | 84.8543 | 106.559 | 49.5143 | 106.192 | 88.3691 | 102.865 | 105.547 | 88.3308 | 106.722 | 138.471 | 64.3129 | 273.773 | 78.7072 | 273.774 | 47.5625 | 98.1851 | 0.7061 | 78.1697 | Established biofilm, live-cell viability (XTT), percentage of untreated ([1]; 32 μg/ml, replicate 2): 1.691; Established biofilm, biomass (crystal violet), percentage of untreated ([1]; 32 μg/ml, replicate 3): 90.9509; Established biofilm, live-cell viability (XTT), percentage of untreated ([1]; 32 μg/ml, replicate 3): 6.084 |
| H-GLFKVIKKLLKVI-NH2 [CIT-8] | 131.685 | 82.5027 | 134.586 | 94.0114 | 61.6564 | 89.5709 | 62.9601 | 83.9897 | 89.9036 | 70.3988 | 92.7553 | 49.8211 | 6.002 | 67.6508 | 15.664 | 56.1605 | 21.3742 | 28.3231 | 9.9063 | 39.7878 | Established biofilm, biomass (crystal violet), percentage of untreated ([1]; 8 μg/ml, replicate 2): 123.287; Established biofilm, live-cell viability (XTT), percentage of untreated ([1]; 32 μg/ml, replicate 2): 2.777; Established biofilm, biomass (crystal violet), percentage of untreated ([1]; 32 μg/ml, replicate 3): 32.068; Established biofilm, live-cell viability (XTT), percentage of untreated ([1]; 32 μg/ml, replicate 3): 4.02; Concentration killing 50% of live cells in 24 h established biofilm ([1]; XTT): 12 µg/mL; MBEC50 (50% of biomass disrupted) ([1]; crystal violet, 24 h established biofilm): 24 µg/mL; ATP leakage, luminescence (S. aureus MW2): increased luminescence levels |
